Data as given in patent US10903496B2, “Rigid naphthalenediimide triangle structures” (Northwestern University, priority 2015, dated 2021).
Converted amounts (≈) assume the structure as drawn. Read-outs that look alike come from different tables or passages of the source.

Experiments:
[1] = Solubility in non-aqueous electrolyte solvents; type: physicochemical; conditions: for solubility in non-aqueous electrolyte solvents (in words): neutral state
[2] = Thermal gravimetric analysis (thermal stability); type: physicochemical
Experimental: Thermal stabilities were analyzed using a PerkinElmer Pyris Diamond TG/DTA analyzer. The temperature was increased from room temperature to 600° C. at a heating rate of 10° C. min^−1 under N2 atmosphere. […] The greater thermal stability of (−)-NDI-Δ is attributed to its higher molecular weight and more rigid structure compared to NDI-Ref.

| Compound | solubility in non-aqueous electrolyte solvents (in words) [1] | thermal stability: temperature up to which stable / at which decomposition starts ([2]; TGA, room temperature to 600° C. at 10° C. min^−1 under N2, one-step decomposition) | solubility in the electrolyte solvents ([1]; electrolyte solvents) | thermal stability: temperature up to which stable / at which decomposition starts [2] |
| --- | --- | --- | --- | --- |
| O=C1c2ccc3c4c5ccc(c24)C(=O)N1C1CCCC[C@@H]1N1C(=O)c2ccc4c6c(ccc(c26)C1=O)C(=O)N(C4=O)[C@H]1CCCC[C@@H]1N1C(=O)c2ccc4c6c(ccc(c26)C1=O)C(=O)N(C4=O)C1CCCC[C@@H]1N(C3=O)C5=O (single isomer, unassigned; (+)) [(+)-NDI-Δ] | only sparingly soluble |  |  |  |
| O=C1c2ccc3c4c(ccc(c24)C(=O)N1C1CCCCC1)C(=O)N(C1CCCCC1)C3=O [NDI-Ref] | considerably more soluble | 250 °C | ~100 µg/mL (≈ 232 µM) |  |
| O=C1c2ccc3c4c5ccc(c24)C(=O)N1C1CCCC[C@H]1N1C(=O)c2ccc4c6c(ccc(c26)C1=O)C(=O)N(C4=O)C1CCCC[C@H]1N1C(=O)c2ccc4c6c(ccc(c26)C1=O)C(=O)N(C4=O)C1CCCC[C@H]1N(C3=O)C5=O (single isomer, unassigned; (-)) [(−)-NDI-Δ] | only sparingly soluble |  |  | 400 °C |
